Structures can show the parent of a compound that is named as a salt.
Key:
[1] = system: H358 xenograft; conditions: tumor growth inhibition; cited from earlier work
[2] = system: Calu3 xenograft; conditions: tumor growth inhibition; cited from earlier work
[3] = system: H292; assay: ChemoFx chemoresponse assay, erlotinib, H292 cell line; format: cell-based, human; conditions: Log EC50 by dose number, mean of 3 assays
Description: (§1) Three human lung tumor-derived immortalized cell lines were tested in this study: H292, H358, and Calu3 (American Type Culture Collection, Manassas, Va.). These cell lines were seeded at 40,000 cells in T25 flasks (PGC Scientifics, Frederick, Md.) and allowed to grow for one week to approximately 90% confluence.
(§2) Cell lines and tissue specimens were processed and tested with the ChemoFx® assay as described elsewhere. Also see, U.S. Pat. Nos. 5,728,541, 6,900,027, 6,887,680, 6,933,129, 6,416,967, 7,112,415, and 7,314,731; and U.S. application Ser. Nos. 10/399,563, 11/504,098, 11/595,967, 11/713,662, and 11/785,984, all of which are hereby incorporated by reference in their entireties, and especially with regard to tissue processing and cell culturing techniques, and assays. Ten doses of erlotinib were prepared by serial dilution. The same 10-dose concentration range was used for the cell lines and the tissue specimens. For each dose, a cytotoxic index (CI) was calculated according to the following formula: CI=Mean cell countdose x/mean cell countcontrol, which represents the ratio of cells killed as a result of the treatment. Cell counts were the average of 3 replicates at each dose for primary cultures and 9 replicates at each dose for immortalized cell lines. […] Adjusted areas under the curve (aAUC) were calculated for each dose-response curve as previously described.

[4] = system: H292 xenograft; conditions: tumor growth inhibition; cited from earlier work
[5] = system: H358; assay: ChemoFx chemoresponse assay, erlotinib, H358 cell line; format: cell-based, human; conditions: Log EC50 by dose number, mean of 3 assays
Description: as §1, §2

[6] = system: Calu-3; assay: ChemoFx chemoresponse assay, erlotinib, Calu-3 cell line; format: cell-based, human; conditions: Calu3; Log EC50 by dose number, mean of 3 assays
Description: as §1, §2

[7] = system: primary cultures of lung cancer; assay: ChemoFx chemoresponse assay, erlotinib, primary cultures of lung cancer; format: cell-based, human; conditions: 34 lung cancer tumors; 72-hour treatment
From the text: Patient tumor specimens: Primary cell cultures were established using tumor specimens procured for research purposes from the following sources: National Disease Research Interchange (Philadelphia, Pa.), Cooperative Human Tissue Network (Philadelphia, Pa.), Forbes Regional Hospital (Monroeville, Pa.), Jameson Hospital (New Castle, Pa.), Saint Barnabas Medical Center (Livingston, N.J.), Hamot Medical Center (Erie, Pa.), and Windber Research Institute (Windber, Pa.). The tumors were removed from the patient at the time of surgery, placed in the supplied 125-mL bottle containing sterile McCoy's shipping medium (Mediatech, Herndon, Va.), and shipped overnight to Precision Therapeutics, Inc. laboratories (Pittsburgh, Pa.).
Cell lines and tissue specimens were processed and tested with the ChemoFx® assay as described elsewhere. Also see, U.S. Pat. Nos. 5,728,541, 6,900,027, 6,887,680, 6,933,129, 6,416,967, 7,112,415, and 7,314,731; and U.S. application Ser. Nos. 10/399,563, 11/504,098, 11/595,967, 11/713,662, and 11/785,984, all of which are hereby incorporated by reference in their entireties, and especially with regard to tissue processing and cell culturing techniques, and assays. Ten doses of erlotinib were prepared by serial dilution. The same 10-dose concentration range was used for the cell lines and the tissue specimens. For each dose, a cytotoxic index (CI) was calculated according to the following formula: CI=Mean cell countdose x/mean cell countcontrol, which represents the ratio of cells killed as a result of the treatment. Cell counts were the average of 3 replicates at each dose for primary cultures and 9 replicates at each dose for immortalized cell lines. Dose response curves were generated using the CI at each dose. Adjusted areas under the curve (aAUC) were calculated for each dose-response curve as previously described.

[8] = system: MCF7; assay: Chemoresponse assay, lapatinib, MCF7; format: cell-based; conditions: 72 hours
Description: (§3) The chemoresponse assay for lapatinib was developed using four different immortalized cell lines (SK-OV3, BT474, MDA-MB-231, MCF7). In addition to cell lines, the chemoresponse assay was also performed on 55 primary cultures of breast carcinomas. […] Cell lines and specimens were treated with a 10 dose concentration range of lapatinib for 72 hours and stained with DAPI; remaining live cells were counted on an inverted fluorescent microscope.

[9] = system: BT474; assay: Chemoresponse assay, lapatinib, BT474; format: cell-based
Description: as §3

[10] = system: primary cultures of breast carcinomas; assay: Chemoresponse assay, lapatinib, primary cultures of breast carcinomas; format: cell-based, human; conditions: 55 primary breast cultures; 72 hours
Description: as §3

[11] = system: SK-OV3; assay: Chemoresponse assay, lapatinib, SK-OV3; format: cell-based
Description: as §3

[12] = system: MDA-MB-231; assay: Chemoresponse assay, lapatinib, MDA-MB-231; format: cell-based; conditions: 72 hours
Description: as §3

| Mean (Log EC50*) [3] | Mean (Log EC50*) [5] | Mean (Log EC50*) [6] | EC50 ([8]; Homo sapiens) | EC50 ([9]; Homo sapiens, BT-474, 72 hours) | EC50 ([11]; Homo sapiens, SK-OV-3, 72 hours) | EC50 ([12]; Homo sapiens) | SMILES | Xenograft TGI (%) [22] [1] | Xenograft TGI (%) [22] [2] | Xenograft TGI (%) [22] [4] | specimens Intermediate Responsive to erlotinib [7] | specimens Non-Responsive to erlotinib [7] | specimens Responsive to erlotinib [7] | response to lapatinib treatment [8] | response to lapatinib treatment ([9]; 72 hours) | specimens non-responsive to lapatinib [10] | specimens responsive to lapatinib [10] | specimens with intermediate response to lapatinib [10] | response to lapatinib treatment ([11]; 72 hours) | response to lapatinib treatment [12] |
| --- | --- | --- | --- | --- | --- | --- | --- | --- | --- | --- | --- | --- | --- | --- | --- | --- | --- | --- | --- | --- |
| 4.731 dose number | 5.925 dose number | 6.715 dose number |  |  |  |  | C#Cc1cccc(Nc2ncnc3cc(OCCOC)c(OCCOC)cc23)c1 [erlotinib, Erlotinib hydrochloride] | 25% | 67% | 85% | 20.6% | 70.6% | 8.8% |  |  |  |  |  |  |  |
|  |  |  | ~10 µM | ~10 µM | ~10 µM | ~10 µM | CS(=O)(=O)CCNCc1ccc(-c2ccc3ncnc(Nc4ccc(OCc5cccc(F)c5)c(Cl)c4)c3c2)o1 [lapatinib, Lapatinib] |  |  |  |  |  |  | responsive | responsive | 76% | 9% | 15% | responsive | responsive |

From patent US20100311084A1, “METHODS FOR PREDICTING A PATIENT'S RESPONSE TO EGFR INHIBITORS” (PRECISION THERAPEUTICS, INC., priority 2008, published 2010)
